Test results published in patent publication US7598397B2, “Sulfonamide peri-substituted bicyclics for occlusive artery disease” (deCODE genetics ehf, priority 2004, dated 2009).

Biological target: T1, prostanoid EP3 receptors (Homo sapiens, UniProt P43115)
T1 sequence (P43115 1-390): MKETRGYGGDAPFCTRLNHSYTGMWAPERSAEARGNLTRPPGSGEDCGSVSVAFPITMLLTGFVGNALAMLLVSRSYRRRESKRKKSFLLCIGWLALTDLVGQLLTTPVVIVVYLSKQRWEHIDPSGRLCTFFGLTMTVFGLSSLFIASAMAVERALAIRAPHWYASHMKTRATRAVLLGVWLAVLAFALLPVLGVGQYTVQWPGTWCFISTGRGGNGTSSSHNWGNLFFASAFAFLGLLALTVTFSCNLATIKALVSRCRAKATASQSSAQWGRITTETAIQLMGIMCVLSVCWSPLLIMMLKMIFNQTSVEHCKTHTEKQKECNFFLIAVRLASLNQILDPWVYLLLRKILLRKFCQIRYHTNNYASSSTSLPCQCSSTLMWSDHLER
Test: binding on prostanoid EP3 receptors (method of Abramovitz et al.)
Conditions: read-out: Activity (EP3 receptor binding, IC50 class)
Protocol: The compounds of the invention were assayed for their binding on prostanoid EP3 receptors according to the method of Abramovitz et al. [Bioch. Biophys.

Compound | IC50 [nM]
Cn1nnnc1S(=O)(=O)c1c[nH]c2cccc(OCC(=O)NS(=O)(=O)c3cc(Cl)c(Cl)s3)c12 [Compound P239] | < 1000
O=C(COc1cccc2[nH]cc(S(=O)(=O)c3nc[nH]n3)c12)NS(=O)(=O)c1cc(Cl)c(Cl)s1 [Compound P240] | < 1000
O=C(C=Cc1cccc2c1C(Nc1ccc3ccccc3c1)C(=O)N2)NS(=O)(=O)c1cc(Cl)c(Cl)s1 (stereo not shown) [Compound P241] | < 1000
CN1C(=O)C(Nc2ccc3ccccc3c2)c2c(C=CC(=O)NS(=O)(=O)c3cc(Cl)c(Cl)s3)cccc21 (stereo not shown) [Compound P242] | < 1000
O=C(COc1cccc2[nH]cc(Sc3ccc4ccccc4c3)c12)NS(=O)(=O)C(F)(F)F [Compound P243] | < 1000
O=C(C=Cc1cccc2c1C(=Nc1ccc3ccccc3c1)C(=O)N2)NS(=O)(=O)c1cc(Cl)c(Cl)s1 [Compound P244] | < 1000
CN1C(=O)C(=Nc2ccc3ccccc3c2)c2c(C=CC(=O)NS(=O)(=O)c3cc(Cl)c(Cl)s3)cccc21 [Compound P245] | < 1000
CN1C(=O)C(S(=O)(=O)c2ccc3ccccc3c2)c2c(OCC(=O)NS(=O)(=O)c3cc(Cl)c(Cl)s3)cccc21 (stereo not shown) [Compound P248] | < 1000
CN1C(=O)C(Nc2ccc(Cl)cc2Cl)c2c(C=CC(=O)NS(=O)(=O)c3cc(Cl)c(Cl)s3)cccc21 (stereo not shown) [Compound P252] | < 1000
COc1cccc(CN2C(=O)CC3(C)CCCC(C=CC(=O)NS(=O)(=O)c4cc(Cl)c(Cl)s4)=C23)c1 (stereo not shown) [Compound P260] | < 1000
CC12CCCC(C=CC(=O)NS(=O)(=O)c3cc(Cl)c(Cl)s3)=C1N(Cc1cccc(F)c1)C(=O)C2 (stereo not shown) [Compound P262] | < 1000
CC12CCCC(C=CC(=O)NS(=O)(=O)c3cc(Cl)c(Cl)s3)=C1N(Cc1ccc(F)cc1)C(=O)C2 (stereo not shown) [Compound P263] | < 1000
CC12CCCC(/C=C/C(=O)NS(=O)(=O)c3cc(Cl)c(Cl)s3)=C1N(Cc1ccc(F)c(F)c1)C(=O)C2 (stereo not shown) [Compound P264] | < 1000
CN1C(=O)C(Oc2ccc3ccccc3c2)c2c(/C=C/C(=O)NS(=O)(=O)c3cc(Cl)c(Cl)s3)cccc21 (stereo not shown) [Compound P265, 4,5-dichloro-thiophene-2-sulfonic acid {(E)-3-[1-methyl-3-(naphthalen-2-yloxy)-2-oxo-2,3-dihydro-1H-indol-4-yl]-acryloyl}-amide] | < 1000
CC12CCCC(C=CC(=O)NS(=O)(=O)c3cc(Cl)cc(Cl)c3)=C1N(Cc1ccc(F)c(F)c1)C(=O)C2 (stereo not shown) [Compound P266] | < 1000
CC12CCCC(C=CC(=O)NS(=O)(=O)c3ccc(OC(F)(F)F)cc3)=C1N(Cc1ccc3ccccc3c1)C(=O)C2 (stereo not shown) [Compound P269] | < 1000
CN1C(=O)C(Nc2ccc(Cl)c(Cl)c2)c2c(C=CC(=O)NS(=O)(=O)c3cc(Cl)c(Cl)s3)cccc21 (stereo not shown) [Compound P271] | < 1000
CN1C(=O)C(Nc2ccc(F)c(F)c2)c2c(C=CC(=O)NS(=O)(=O)c3cc(Cl)c(Cl)s3)cccc21 (stereo not shown) [Compound P272] | < 1000
CC(C)(C)OC(=O)N1CCCc2cccc(OCC(=O)NS(=O)(=O)c3cccs3)c21 [Compound P273] | < 1000
CC12CCCC(C=CC(=O)NS(=O)(=O)c3ccc(F)cc3)=C1N(Cc1ccc(Cl)cc1Cl)C(=O)C2 (stereo not shown) [Compound P274] | < 1000
CC12CCCC(C=CC(=O)NS(=O)(=O)c3cc(F)c(F)cc3F)=C1N(Cc1ccc(Cl)cc1Cl)C(=O)C2 (stereo not shown) [Compound P275] | < 1000
CC12CCCC(C=CC(=O)NS(=O)(=O)c3cccs3)=C1N(Cc1ccc(Cl)cc1Cl)C(=O)C2 (stereo not shown) [Compound P276] | < 1000
Cn1cc(Oc2ccc3ccccc3c2)c2c(C=CC(=O)NS(=O)(=O)c3cc(Cl)c(Cl)s3)cccc21 [Compound P277] | < 1000

Compound | IC50 [nM]
CC12CCCC(C=CC(=O)NS(=O)(=O)c3cc(Cl)c(Cl)s3)=C1N(Cc1ccc(Cl)cc1Cl)C(=O)C2 (stereo not shown) [Compound P278] | < 1000
CC12CCCC(C=CC(=O)NS(=O)(=O)c3ccc(Cl)s3)=C1N(Cc1ccc(Cl)cc1Cl)C(=O)C2 (stereo not shown) [Compound P279] | < 1000
CC12CCCC(C=CC(=O)NS(=O)(=O)c3cc(Cl)cc(Cl)c3)=C1N(Cc1ccc(Cl)cc1Cl)C(=O)C2 (stereo not shown) [Compound P280] | < 1000
CC12CCCC(C=CC(=O)NS(=O)(=O)c3cccc(Cl)c3)=C1N(Cc1ccc(Cl)cc1Cl)C(=O)C2 (stereo not shown) [Compound P281] | < 1000
CC12CCCC(C=CC(=O)NS(=O)(=O)c3cc(F)cc(F)c3)=C1N(Cc1ccc(Cl)cc1Cl)C(=O)C2 (stereo not shown) [Compound P282] | < 1000
CC12CCCC(C=CC(=O)NS(=O)(=O)c3ccc(F)c(F)c3)=C1N(Cc1ccc(Cl)cc1Cl)C(=O)C2 (stereo not shown) [Compound P283] | < 1000
Cn1nc(NS(=O)(=O)c2cc(Cl)c(Cl)s2)c2c(Oc3ccc4ccccc4c3)cccc21 [Compound P284, 4,5-Dichloro-thiophene-2-sulfonic acid [1-methyl-4-(naphthalen-2-yloxy)-1H-indazol-3-yl]-amide] | 1000 to 10000
CC12CCCC(C=CC(=O)NS(=O)(=O)c3cc(Cl)c(Cl)s3)=C1N(Cc1cccc(Cl)c1)C(=O)C2 (stereo not shown) [Compound P285] | < 1000
O=C(C=Cc1cccc2c1C(Nc1cc(Cl)cc(Cl)c1)C(=O)N2)NS(=O)(=O)c1cc(Cl)c(Cl)s1 (stereo not shown) [Compound P286] | < 1000
O=C(C=Cc1cccc2c1C(Nc1ccc(Cl)cc1Cl)C(=O)N2)NS(=O)(=O)c1cc(Cl)c(Cl)s1 (stereo not shown) [Compound P287] | < 1000
Cn1cc(C=CC(=O)NS(=O)(=O)c2cc(Cl)c(Cl)s2)c2c(Oc3ccc(Cl)c(Cl)c3)cccc21 [Compound P290] | < 1000
Cn1cc(C=CC(=O)NS(=O)(=O)c2cc(Cl)c(Cl)s2)c2c(Oc3cccc(Cl)c3Cl)cccc21 [Compound P291] | < 1000
Cn1cc(C=CC(=O)NS(=O)(=O)c2cc(F)c(F)cc2F)c2c(Oc3ccc(Cl)c(Cl)c3)cccc21 [Compound P292] | < 1000
Cn1cc(C=CC(=O)NS(=O)(=O)c2ccc(F)c(F)c2)c2c(Oc3ccc(Cl)c(Cl)c3)cccc21 [Compound P293] | < 1000
CC12CCCC(C=CC(=O)NS(=O)(=O)c3ccc(F)c(F)c3)=C1N(Cc1ccc(F)cc1)C(=O)C2 (stereo not shown) [Compound P294] | < 1000
CC12CCCC(C=CC(=O)NS(=O)(=O)c3cc(F)cc(F)c3)=C1N(Cc1ccc(F)cc1)C(=O)C2 (stereo not shown) [Compound P295] | < 1000
CC12CCCC(C=CC(=O)NS(=O)(=O)c3cc(F)c(F)cc3F)=C1N(Cc1cccc(Cl)c1Cl)C(=O)C2 (stereo not shown) [Compound P296] | < 1000
CC12CCCC(C=CC(=O)NS(=O)(=O)c3ccc(F)c(F)c3)=C1N(Cc1cccc(Cl)c1Cl)C(=O)C2 (stereo not shown) [Compound P297] | < 1000
CC12CCCC(C=CC(=O)NS(=O)(=O)c3cc(F)cc(F)c3)=C1N(Cc1cccc(Cl)c1Cl)C(=O)C2 (stereo not shown) [Compound P298] | < 1000
CC12CCCC(C=CC(=O)NS(=O)(=O)c3cc(Cl)c(Cl)s3)=C1N(Cc1cccc(Cl)c1Cl)C(=O)C2 (stereo not shown) [Compound P299] | < 1000
CC12CCCC(C=CC(=O)NS(=O)(=O)c3cc(F)c(F)cc3F)=C1N(Cc1ccc(F)cc1)C(=O)C2 (stereo not shown) [Compound P300] | < 1000
Cn1cc(C=CC(=O)NS(=O)(=O)c2ccc(F)c(F)c2)c2c(Oc3ccc(Cl)cc3Cl)cccc21 [Compound P302] | < 1000
Cn1cc(C=CC(=O)NS(=O)(=O)c2cc(Cl)c(Cl)s2)c2c(Oc3ccc(Cl)cc3Cl)cccc21 [Compound P303] | < 1000
